We go through nine molecules from paper PMC7056863, “Development of a CDK10/CycM in vitro Kinase Screening Assay and Identification of First Small-Molecule Inhibitors” (Frontiers in Chemistry, 2020).

Data set [1] concerns the target T1, GST-CDK10/Strep2-CycM (CDK10/CycM) (Homo sapiens, UniProt Q15131).
T1 construct: GST-CDK10 co-expressed with Strep2-CycM (pFastBacDual) in Sf9 cells, glutathione sepharose purified heterodimer, tags kept; with Cyclin-Q
Nature of the data set: ADP-Glo luminescent kinase assay, CDK10tide (Jar1) peptide. In kind it is biochemical. The text has this: ADP-Glo luminescent kinase assay, CDK10tide (Jar1) peptide on GST-CDK10/Strep2-CycM (CDK10/CycM)
(ADP-Glo turns the ADP formed in a reaction into a luminescent signal.)

The target of data set [2] is T1, GST-CDK10/Strep2-CycM (CDK10/CycM). In words: in vitro kinase assay. Conditions: for inhibition at 1 µM: read-out: % inhibition at 1 uM. The data set is classed as biochemical.
Substrate in data set [3]: Nc1ncnc2c1ncn2[C@@H]1O[C@H](COP(=O)(O)OP(=O)(O)OP(=O)(O)O)[C@@H](O)[C@H]1O
Nature of the data set: ADP-Glo luminescent kinase assay, ATP titration, Michaelis-Menten. The data set is classed as biochemical, Homo sapiens. The conditions noted are these: […] CDK10tide, […] enzyme, […] ATP, […] MgCl2, pH […].

The mark [4] stands for this setting: read-out: CDK10/CycM (measured herein).

Where two headings read alike, the source gives them in different places.

T1 sequence (Q8N1B3 whole entry partner, one chain of several): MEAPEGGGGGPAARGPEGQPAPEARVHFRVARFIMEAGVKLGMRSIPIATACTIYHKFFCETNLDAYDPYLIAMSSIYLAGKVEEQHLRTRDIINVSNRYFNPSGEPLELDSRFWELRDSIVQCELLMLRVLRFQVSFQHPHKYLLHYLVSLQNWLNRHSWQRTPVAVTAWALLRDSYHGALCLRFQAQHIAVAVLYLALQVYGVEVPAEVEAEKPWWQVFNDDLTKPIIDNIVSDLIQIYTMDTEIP

Turning to `CN1CC[C@H](c2c(O)cc(O)c3c(=O)cc(-c4ccccc4Cl)oc23)[C@H]1CO` [riviciclib], the IC50 in data set [1] (setting [4]) worked out at 280 nM.
What is called inhibition is the share of the control response that was lost under treatment. Regarding `CC[C@H](CO)Nc1nc(NCc2ccc(-c3ccccn3)cc2)c2ncn(C(C)C)c2n1` [CR8], the inhibition at 1 µM in data set [2] is below 50%.
On to `CC(=O)c1c(C)c2cnc(Nc3ccc(N4CCNCC4)cn3)nc2n(C2CCCC2)c1=O` [palbociclib], for which the inhibition at 1 µM in data set [2] was below 50%.
The same measure, in the same setting: the same measure for `CC[C@H](CO)Nc1nc(NCc2ccccc2)c2ncn(C(C)C)c2n1` [roscovitine]: below 50%.
As to `CC(=O)N[C@@H]1CCC[C@H](C(=O)Nc2cc(-c3cnn4c3CC(C)(C)C4)c(Cl)cn2)C1` [AZD4573], the IC50 in data set [1] (setting [4]) was 36 nM.
For orientation: % inhibition means the change of the read-out against control, counted positive when it falls. Read a high % inhibition as a response far below the control. As for meriolin, in data set [2] (data not shown, text: not greater than […]), the “% inhibition at 1 uM” value is reported as below 50%.
Consider `Cn1cnc2c(NCc3ccccc3)nc(NCCO)nc21` [olomoucine], for which, in data set [2], the inhibition at 1 µM is below 50%.
Take `CCc1cnn2c(NCc3ccc[n+]([O-])c3)cc(N3CCCC[C@H]3CCO)nc12` [dinaciclib]: the IC50 in data set [1] (read-out: CDK9/CycT1 (measured herein)) was determined as 13 nM.

B1: GST-CDK10/Strep2-CycM (CDK10/CycM) (Homo sapiens) (protein)
chain: MAEPDLECEQIRLKCIRKEGFFTVPPEHRLGRCRSVKEFEKLNRIGEGTYGIVYRARDTQTDEIVALKKVRMDKEKDGIPISSLREITLLLRLRHPNIVELKEVVVGNHLESIFLVMGYCEQDLASLLENMPTPFSEAQVKCIVLQVLRGLQYLHRNFIIHRDLKVSNLLMTDKGCVKTADFGLARAYGVPVKPMTPKVVTLWYRAPELLLGTTTQTTSIDMWAVGCILAELLAHRPLLPGTSEIHQIDLIVQLLGTPSENIWPGFSKLPLVGQYSLRKQPYNNLKHKFPWLSEAGLRLLHFLFMYDPKKRATAGDCLESSYFKEKPLPCEPELMPTFPHHRNKRAAPATSEGQSKRCKP
notes: GST-CDK10 co-expressed with Strep2-CycM (pFastBacDual) in Sf9 cells, glutathione sepharose purified heterodimer, tags kept; with Cyclin-Q
For orientation: Km means the substrate concentration at which the rate is half of its maximum. On to B1, for which the Km in data set [3] stood at 177 µM.
